In this experiment the target is T1, human GLP-1R (Homo sapiens, UniProt P43220).
T1 construct: host or cells: HEK293
The experiment is described as follows: GLP-1R cAMP assay (Example B1a, HTRF, 30 min at room temperature). Particulars: for EC50 Ratio: potency ratio of stereoisomer pair (less potent / more potent isomer); for potency: bridge atoms configured out of the plane or toward the reader. Type of experiment: cell-based. In outline:
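Competitive HTRF read-out of cAMP after 30 min room-temperature stimulation, BETP absent, of human GLP-1R-HEK293 cells (1,000/well) in HEPES buffer with 500 μM IBMX and 0.1% BSA. Activation normalised to GLP-1(7-37) positive control. EC50 from 4-parameter non-linear regression.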
(In general: cAMP levels reflect the balance of adenylyl cyclase and phosphodiesterase activity.)

[1] abbreviates: cAMP accumulation in HEK293 expressing human GLP-1R, no BETP, 30 min room temperature (Method B1a, compounds ID 1-609), Table 1, read-out: EC50.
Setting [2] is: Table 1d, stereoisomer pairs, read-out: EC50.
Where [3] appears, read: text to Table 1d, bridge atoms configured into the plane or away from the reader, read-out: potency (EC50).

Each structure is given as a SMILES string. Like-named read-outs stand apart in the source and are kept apart here.

T1 sequence (P43220 24-463): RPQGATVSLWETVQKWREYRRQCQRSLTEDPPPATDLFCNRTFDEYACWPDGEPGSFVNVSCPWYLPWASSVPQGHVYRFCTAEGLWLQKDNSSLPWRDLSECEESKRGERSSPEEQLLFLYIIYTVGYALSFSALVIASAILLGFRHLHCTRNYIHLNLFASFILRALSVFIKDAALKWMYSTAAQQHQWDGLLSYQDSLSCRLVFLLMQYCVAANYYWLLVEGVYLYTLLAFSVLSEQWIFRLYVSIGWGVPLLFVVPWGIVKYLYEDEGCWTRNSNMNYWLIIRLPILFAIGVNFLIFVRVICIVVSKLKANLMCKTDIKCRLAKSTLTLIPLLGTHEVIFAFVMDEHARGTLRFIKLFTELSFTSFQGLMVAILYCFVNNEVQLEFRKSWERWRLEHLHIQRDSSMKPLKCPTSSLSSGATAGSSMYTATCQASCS

On to `Cc1cc(-n2nc3c(c2-n2ccn(-c4ccc5c(cnn5C)c4F)c2=O)[C@@H]2CC[C@H](C3)N2S(=O)(=O)c2cc3cc(C4CCOC(C)(C)C4)ccc3n2[C@]2(c3noc(=O)[nH]3)C[C@@H]2C)cc(C)c1F` (stereo partly drawn) [Compound 504, 3-[(1R,2S)-1-[5-(2,2-dimethyltetrahydropyran-4-yl)-2-[[(1S,8R)-4-(4-fluoro-3,5-dimethyl-phenyl)-3-[3-(4-fluoro-1-methyl-indazol-5-yl)-2-oxo-imidazol-1-yl]-4,5,11-triazatricyclo[6.2.1.02,6]undeca-2,5-dien-11-yl]sulfonyl]indol-1-yl]-2-methyl-cyclopropyl]-4H-1,2,4-oxadiazol-5-one], for which the EC50 – broadly, the concentration needed to bring the measured effect to its halfway point – under setting [1] worked out at 1930 nM.

As to `Cc1cc(-n2nc3c(c2-n2ccn(-c4ccc5[nH]ncc5c4F)c2=O)CN(C(=O)c2cc4cc([C@H]5CCOC(C)(C)C5)ccc4n2[C@@]2(c4noc(=O)[nH]4)C[C@@H]2C)CCC3)cc(C)c1F` [Compound 505, 3-[(1S,2S)-1-[5-[(4S)-2,2-dimethyltetrahydropyran-4-yl]-2-[2-(4-fluoro-3,5-dimethyl-phenyl)-3-[3-(4-fluoro-1H-indazol-5-yl)-2-oxo-imidazol-1-yl]-4,6,7,8-tetrahydropyrazolo[4,3-c]azepine-5-carbonyl]indol-1-yl]-2-methyl-cyclopropyl]-4H-1,2,4-oxadiazol-5-one], the EC50 under setting [1] was 600 nM.

For `CCP(=O)(CC)c1ccc(-n2ccn(-c3c4c(nn3-c3cc(C)c(F)c(C)c3)CCCN(C(=O)c3cc5cc(C6CCOCC6)ccc5n3[C@@]3(c5noc(=O)[nH]5)C[C@@H]3C)C4)c2=O)cc1NC` [Compound 506, 3-[(1S,2S)-1-[2-[3-[3-[4-diethylphosphoryl-3-(methylamino)phenyl]-2-oxo-imidazol-1-yl]-2-(4-fluoro-3,5-dimethyl-phenyl)-4,6,7,8-tetrahydropyrazolo[4,3-c]azepine-5-carbonyl]-5-tetrahydropyran-4-yl-indol-1-yl]-2-methyl-cyclopropyl]-4H-1,2,4-oxadiazol-5-one], the EC50 under setting [1] was 757 nM. Take `Cc1cc(-n2nc3c(c2-n2ccn(-c4ccc5c(cnn5C)c4F)c2=O)C2CCC([C@@H]3F)N2C(=O)c2cc3cc([C@H]4CCOC(C)(C)C4)ccc3n2[C@@]2(c3noc(=O)[nH]3)C[C@@H]2C)cc(C)c1F` (stereo partly drawn) [Compound 507, cis-3-((1S,2S)-1-(5-((S)-2,2-dimethyltetrahydro-2H-pyran-4-yl)-2-(8-fluoro-3-(3-(4-fluoro-1-methyl-1H-indazol-5-yl)-2-oxo-2,3-dihydro-1H-imidazol-1-yl)-2-(4-fluoro-3,5-dimethylphenyl)-2,4,5,6,7,8-hexahydro-4,7-epiminocyclohepta [c]pyrazole-9-carbonyl)-1H-indol-1-yl)-2-methylcyclopropyl)-1,2,4-oxadiazol-5 (4H)-one]: the EC50 under setting [1] stood at 630 nM. As for `Cc1cc(-n2nc3c(c2-n2ccn(-c4ccc5c(cnn5C)c4F)c2=O)CN(S(=O)(=O)c2cc4cc(C5CCOC(C)(C)C5)ccc4n2[C@@]2(c4noc(=O)[nH]4)C[C@@H]2C)CCC3)cc(C)c1F` (stereo partly drawn) [Compound 508, 3-[(1S,2S)-1-[5-(2,2-dimethyltetrahydropyran-4-yl)-2-[[2-(4-fluoro-3,5-dimethyl-phenyl)-3-[3-(4-fluoro-1-methyl-indazol-5-yl)-2-oxo-imidazol-1-yl]-4,6,7,8-tetrahydropyrazolo[4,3-c]azepin-5-yl]sulfonyl]indol-1-yl]-2-methyl-cyclopropyl]-4H-1,2,4-oxadiazol-5-one], the EC50 under setting [1] was ≥ 10000 nM. As to `Cc1cc(-n2nc3c(c2-n2ccn(-c4ccc5c(cnn5C)c4F)c2=O)[C@@H]2CCC[C@H](C3)N2C(=O)c2cc3cc([C@H]4CCOC5(CC5)C4)ccc3n2[C@@]2(c3noc(=O)[nH]3)C[C@@H]2C)cc(C)c1F` [Compound 509, 3-((1S,2S)-1-(2-((4S,8R)-3-(3-(4-fluoro-1-methyl-1H-indazol-5-yl)-2-oxo-2,3-dihydro-1H-imidazol-1-yl)-2-(4-fluoro-3,5-dimethylphenyl)-4,5,6,7,8,9-hexahydro-2H-4,8-epiminocycloocta [c]pyrazole-10-carbonyl)-5-((S)-4-oxaspiro[2.5]octan-7-yl)-1H-indol-1-yl)-2-methylcyclopropyl)-1,2,4-oxadiazol-5 (4H)-one], under setting [1], the EC50 is 134 nM. On the same count and under the same terms, next, `Cc1cc(-n2nc3c(c2-n2ccn(-c4ccc5c(cnn5C)c4F)c2=O)[C@@H]2CC[C@H](C3)N2C(=O)c2cc3cc(N4CC(C)(C)C=CC4=O)ccc3n2[C@@]2(c3noc(=O)[nH]3)C[C@@H]2C)cc(C)c1F` [Compound 510]: ≥ 10000 nM; `Cc1cc(-n2nc3c(c2-n2ccn(-c4ccc5c(cnn5C)c4F)c2=O)C2CCC([C@H]3F)N2C(=O)c2cc3cc([C@H]4CCOC(C)(C)C4)ccc3n2[C@@]2(c3noc(=O)[nH]3)C[C@@H]2C)cc(C)c1F` (stereo partly drawn) [Compound 511, 3-[(1S,2S)-1-[5-[(4S)-2,2-dimethyltetrahydropyran-4-yl]-2-[(7R)-7-fluoro-4-(4-fluoro-3,5-dimethyl-phenyl)-3-[3-(4-fluoro-1-methyl-indazol-5-yl)-2-oxo-imidazol-1-yl]-4,5,11-triazatricyclo[6.2.1.02,6]undeca-2,5-diene-11-carbonyl]indol-1-yl]-2-methyl-cyclopropyl]-4H-1,2,4-oxadiazol-5-one]: 588 nM. For `Cc1cc(-n2nc3c(c2-n2ccn(-c4ccc5c(cnn5C)c4F)c2=O)[C@@H]2CC[C@H]([C@H]3F)N2C(=O)c2cc3cc([C@H]4CCOC(C)(C)C4)ccc3n2[C@@]2(c3noc(=O)[nH]3)C[C@@H]2C)cc(C)c1F` [Compound 512, 3-[(1S,2S)-1-[5-[(4S)-2,2-dimethyltetrahydropyran-4-yl]-2-[(1S,7R,8R)-7-fluoro-4-(4-fluoro-3,5-dimethyl-phenyl)-3-[3-(4-fluoro-1-methyl-indazol-5-yl)-2-oxo-imidazol-1-yl]-4,5,11-triazatricyclo[6.2.1.02,6]undeca-2,5-diene-11-carbonyl]indol-1-yl]-2-methyl-cyclopropyl]-4H-1,2,4-oxadiazol-5-one], where the note is “Table 1d”, the “EC50 Ratio” value was >83. The EC50 is 226 nM under setting [2], 226 nM under setting [1] and < 1000 nM under setting [3]. On to `Cc1cc(-n2nc3c(c2-n2ccn(-c4ccc5c(cnn5C)c4F)c2=O)[C@H]2CC[C@@H]([C@@H]3F)N2C(=O)c2cc3cc([C@H]4CCOC(C)(C)C4)ccc3n2[C@@]2(c3noc(=O)[nH]3)C[C@@H]2C)cc(C)c1F` [Compound 513, 3-[(1S,2S)-1-[5-[(4S)-2,2-dimethyltetrahydropyran-4-yl]-2-[(1R,7S,8S)-7-fluoro-4-(4-fluoro-3,5-dimethyl-phenyl)-3-[3-(4-fluoro-1-methyl-indazol-5-yl)-2-oxo-imidazol-1-yl]-4,5,11-triazatricyclo[6.2.1.02,6]undeca-2,5-diene-11-carbonyl]indol-1-yl]-2-methyl-cyclopropyl]-4H-1,2,4-oxadiazol-5-one], for which the EC50 under setting [1] is ≥ 10000 nM. Moreover, the potency entry (text to Table 1d) is “little or no potency”. On to `Cc1cc(-n2nc3c(c2-n2ccn(-c4ccc5c(cnn5C)c4F)c2=O)[C@H]2CC[C@@H]([C@H]3F)N2C(=O)c2cc3cc([C@H]4CCOC(C)(C)C4)ccc3n2[C@@]2(c3noc(=O)[nH]3)C[C@@H]2C)cc(C)c1F` [Compound 514, 3-[(1S,2S)-1-[5-[(4S)-2,2-dimethyltetrahydropyran-4-yl]-2-[(1R,7R,8S)-7-fluoro-4-(4-fluoro-3,5-dimethyl-phenyl)-3-[3-(4-fluoro-1-methyl-indazol-5-yl)-2-oxo-imidazol-1-yl]-4,5,11-triazatricyclo[6.2.1.02,6]undeca-2,5-diene-11-carbonyl]indol-1-yl]-2-methyl-cyclopropyl]-4H-1,2,4-oxadiazol-5-one], for which the concentration giving a half-maximal response (EC50) under setting [1] is ≥ 10000 nM. Besides, the potency result (text to Table 1d) is reported as “little or no potency”. `Cc1cc(-n2nc3c(c2-n2ccn(-c4ccc5c(cnn5C)c4F)c2=O)[C@@H]2CC[C@H]([C@@H]3F)N2C(=O)c2cc3cc([C@H]4CCOC(C)(C)C4)ccc3n2[C@@]2(c3noc(=O)[nH]3)C[C@@H]2C)cc(C)c1F` [Compound 515, 3-[(1S,2S)-1-[5-[(4S)-2,2-dimethyltetrahydropyran-4-yl]-2-[(1S,7S,8R)-7-fluoro-4-(4-fluoro-3,5-dimethyl-phenyl)-3-[3-(4-fluoro-1-methyl-indazol-5-yl)-2-oxo-imidazol-1-yl]-4,5,11-triazatricyclo[6.2.1.02,6]undeca-2,5-diene-11-carbonyl]indol-1-yl]-2-methyl-cyclopropyl]-4H-1,2,4-oxadiazol-5-one]: the “EC50 Ratio” value (Table 1d) was >44. The EC50 is, setting by setting: under setting [2], 120 nM; under setting [1], 120 nM; under setting [3], < 1000 nM. For `Cc1cc(-n2nc3c(c2-n2ccn(-c4ccc5c(cnn5C)c4F)c2=O)[C@@H]2CC[C@H](C3)N2C(=O)c2cc3cc([C@@H]4CCOC5(CC5)C4)ccc3n2[C@]2(c3noc(=O)[nH]3)C[C@H]2C)cc(C)c1F` [Compound 516, 3-[(1R,2R)-1-[2-[(1S,8R)-4-(4-fluoro-3,5-dimethyl-phenyl)-3-[3-(4-fluoro-1-methyl-indazol-5-yl)-2-oxo-imidazol-1-yl]-4,5,11-triazatricyclo[6.2.1.02,6]undeca-2,5-diene-11-carbonyl]-5-[(7R)-4-oxaspiro[2.5]octan-7-yl]indol-1-yl]-2-methyl-cyclopropyl]-4H-1,2,4-oxadiazol-5-one], under setting [1], the EC50 is ≥ 10000 nM. Same read-out and setting: next, `Cc1cc(-n2nc3c(c2-n2ccn(-c4ccc5c(cnn5C)c4F)c2=O)[C@H]2CC[C@@H](C3)N2C(=O)c2cc3cc([C@@H]4CCOC5(CC5)C4)ccc3n2[C@]2(c3noc(=O)[nH]3)C[C@H]2C)cc(C)c1F` [Compound 517, 3-[(1R,2R)-1-[2-[(1R,8S)-4-(4-fluoro-3,5-dimethyl-phenyl)-3-[3-(4-fluoro-1-methyl-indazol-5-yl)-2-oxo-imidazol-1-yl]-4,5,11-triazatricyclo[6.2.1.02,6]undeca-2,5-diene-11-carbonyl]-5-[(7R)-4-oxaspiro[2.5]octan-7-yl]indol-1-yl]-2-methyl-cyclopropyl]-4H-1,2,4-oxadiazol-5-one]: ≥ 10000 nM.

Source of the values: patent US12617783B2, “Heterocyclic GLP-1R agonists” (BIOMEA FUSION, INC., priority 2024, dated 2026).
